Values quoted from earlier work, collected in patent US20240390366A1, “FORMULATION AND METHOD FOR TOPICAL TREATMENT OF MYCOBACTERIUM ULCERANS IN BURULI ULCERS” (priority 2021, published 2024).

solubility in water: practically insoluble
Compound: CC(C)/N=c1\cc2n(-c3ccc(Cl)cc3)c3ccccc3nc-2cc1Nc1ccc(Cl)cc1 [Clofazimine, clofazimine]
